The values below come from patent publication US3933853A, “Indole derivatives” (Clin Midy, priority 1972, dated 1976).

The subject of data set [1] is visceral pain in the mouse. The experiment in a line: Analgesic effect, Koster and Anderson test (visceral pain induced by intraperitoneal acetic acid). Particulars: oral, 30 minutes before acetic acid injection, read-out: ED50 (50% effective dose reducing by one half the number of symptoms of pain). Type of data set: in vivo. The method, then:
A visceral pain is induced in the mouse by intraperitonal injection of a dilute solution of acetic acid (Koster and Anderson test).
The animals, which are starved on the day before the experiment, and separated into random batches of five, are treated with the products under test 30 minutes before injection of the irritant. Treatment was always performed orally.
After the acetic solution is injected the animals show symptoms of pain (stretching of the abdomen with extension of the back feet) which are counted during two spells of five minutes for each lot: from the fifth to the tenth minute and from the fifteen to the twentieth minute respectively after the acid is injected.
The ED50 value is expressed in mg per kg bodyweight.
These doses were obtained by oral administration of the products of the invention.

In the next data set the test system is central nervous system. The experiment in a line: Tranquillising effect, exploration test (perforated board). Type of data set: in vivo. The following applies: mouse, oral route. The method, then: Exploration test (perforated board): the number of holes explored by an animal (mouse) which has unrestricted movement and is placed on the board for the first time, are recorded.

The nature of another data set: Acute toxicity (LD50). Particulars: in vivo, mouse. The text has this: Moreover, the compounds of the present invention are not, in general, very toxic.
Toxicity, expressed in mg/kg bodyweight, is given below for certain other compounds when administered by the sub-cutaneous route and by the oral route.

The mark [2] stands for this setting: sc, sub-cutaneous route, read-out: LD50 / toxicity, sub-cutaneous.
[3] abbreviates: oral route, read-out: LD50 / toxicity, oral.

Read-outs that look alike come from different tables or passages of the source.

For orientation: ED50 means the dose that gives a 50% effect, or the effect in half of the subjects. For `CC(=O)Cc1cn(CCN(C)C)c2ccccc12` [compound 5353], the ED50 in data set [1] turned out to be 1.5 mg/kg; with central nervous system, 5 mg/kg.
With `CC(Cc1cn(CCN(C)C)c2ccccc12)=NO` [compound 5354], the ED50 in data set [1] is 3 mg/kg.
The same measure, in the same setting: the same measure for `CC(Cc1cn(CCN(C)C)c2ccccc12)=NOCCN(C)C` [compound 5444]: 6.25 to 12.5 mg/kg.
For `CC(=O)ON=C(C)Cc1cn(CCN(C)C)c2ccccc12` [compound 5472], the ED50 in data set [1] was 0.75 to 1.5 mg/kg; with central nervous system, 5 mg/kg. The LD50 in “Acute toxicity (LD50)” (setting [2]) is 400 mg/kg; in “Acute toxicity (LD50)” (setting [3]) it was 200 mg/kg.
For the compound `CCC(=O)ON=C(C)Cc1cn(CCN(C)C)c2ccccc12` [compound 5473], the ED50 in data set [1] was in the range of 0.75 to 1.5 mg/kg. In addition, the LD50 was 200 to 400 mg/kg in “Acute toxicity (LD50)” (setting [2]) and over 400 mg/kg in “Acute toxicity (LD50)” (setting [3]).
Turning to `CCN(CC)CCn1cc(CC(C)=O)c2ccccc21` [compound 5477], the results for the LD50 in the data set “Acute toxicity (LD50)” (setting [2]) and in the data set “Acute toxicity (LD50)” (setting [3]) were 200 mg/kg and 400 mg/kg, respectively.
Take `CC(O)Cc1cn(CCN(C)C)c2ccccc12` (centres unmarked) [compound 5607]: in data set [1], the ED50 came out at 0.75 mg/kg. For the same compound, the figures for the LD50 in the data set “Acute toxicity (LD50)” (setting [2]) and in “Acute toxicity (LD50)” (setting [3]) were 800 mg/kg and over 800 mg/kg, respectively.
With `CCN(CC)CCn1cc(CC(C)O)c2ccccc21` (centres unmarked) [compound 5938], in data set [1], the ED50 came out at 1.5 mg/kg.
`COc1ccc(-n2cc(CC(C)O)c3ccccc32)cc1` (centres unmarked) [compound 5992] yielded an ED50 in the data set on central nervous system of 1 mg/kg. Besides, the LD50 in “Acute toxicity (LD50)” (setting [2]) and in the data set “Acute toxicity (LD50)” (setting [3]) was over 400 mg/kg in each case.
